Experimental findings from patent US20250186436A1 (4E Therapeutics, Inc., priority 2021, published 2025) are described below.

The target of series [1] is T1, recombinant full-length human kinase MNK1 (Homo sapiens, UniProt Q9BUB5).
T1 construct: the recombinant full-length human kinase MNK1; made in house; host or cells: insect cells
Kind of series: MNK1 radiometric kinase activity assay. As to conditions: radiometric activity assay; read-out: MNK1. The format is biochemical.

The target in series [2] is T2, recombinant full length human kinase MNK2 (Homo sapiens, UniProt Q9HBH9).
T2 construct: the recombinant full length human kinase MNK2; made in house; host or cells: insect cells
Kind of series: MNK2 radiometric kinase activity assay. It is filed as biochemical. As to conditions: radiometric activity assay; read-out: MNK2.

Series [3] deals with IL-6 evoked grimace in ICR mice. Kind of series: IL-6 evoked grimace test. It is filed as in vivo. To be noted: PO 1 hr prior to IL-6 (4ET-03-053: 10 mg/kg). How it is done:
Male and female Institute for Cancer Research (ICR) mice were used in these experiments. Mice were bred in house at University of Texas at Dallas and used at between 12 and 24 weeks of age. Mice were habituated to plexiglass boxes of approximately 4×6 inches in size with openable tops. Habituation took place over 2 days with animals exposed to the boxes for at least 30 min. A blinded observer scored baseline grimacing using the method previously described by Mogil and colleagues (Langford D J, et al. “Coding of facial expressions of pain in the laboratory mouse” Nat Methods 7:447-449 (2010)). On test day, mice were given test compounds 1 hr prior to injection of interleukin 6 (human recombinant IL-6, R&D Systems) which was given at a dose of 0.1 ng in saline via an intraplantar injection as described previously (Moy J K, et al. “The MNK-eIF4E Signaling Axis Contributes to Injury-Induced Nociceptive Plasticity and the Development of Chronic Pain” J Neurosci. 37:7481-7499 (2017)). Test compounds were given orally (PO) via a flexible oral gavage canula built for mice. 4ET-03-053 is efficacious in the IL-6 evoked grimace test in mice (PO; 10 mg/kg).
Effect sizes were calculated per mouse by subtracting the baseline grimace score from the sum of the grimace scores for 1 and 3 hr time points.

The nature of series [4]: Liver microsome stability. As to conditions: mouse, liver microsomes.
Series [5] deals with eIF4E phosphorylation at Serine 209 in HEK 293 cells. Description: eIF4E phosphorylation in HEK 293 cells (phospho-specific antibody, fluorescent plate reader).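 Further: Well-level p-eIF4E immunofluorescence normalized to DAPI signal, expressed as percent eIF4E phosphorylation, with IC50 derived from concentration-response curves.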 The format is cell-based. As to conditions: Homo sapiens, HEK293; eIF4E phosphorylation at Serine 209, 2 hours exposure; read-out: HEK 293 cell.
The test system of series [6] is P-gp (human MDR1, ABCB1). Description: MDCK-MDR1 permeability (blood-brain barrier permeability). To be noted: dog.
A further series deals with Wistar rats. Kind of series: Intravenous self-administration with oxycodone and saline regimen. The format is in vivo. As to conditions: Wistar rats; for Mean Difference, Šídák's multiple comparisons test: numbers of infusions. How it is done: Ten male and eleven female Wistar rats (Charles River, Hollister, CA) were used in this study. Rats were housed in groups of 2-3 per cage prior to surgery, and then individually housed to protect their catheters, in a temperature-controlled (22° C.) vivarium on a 12/12h light/dark cycle (lights off at 8:00 AM) with ad libitum access to food and water. The rats acclimated to the animal facility for at least 7 days before surgery. All procedures adhered to the National Institutes of Health Guide for the Care and Use of Laboratory Animals and were approved by the Institutional Animal Care and Use Committee of The Scripps Research Institute.
For surgery, rats were anesthetized with 2 to 3% isoflurane. They were implanted with a silastic catheter (0.3 mm i.d.×0.64 mm o.d.; Dow Corning Co. Midland, MI) into the right external jugular vein under aseptic conditions. The distal end of the catheter was subcutaneously threaded to the back of the rat where it exited via a metal guide cannula (22G; Plastics One Inc., Roanoke, VA) that was anchored at the back of the rat and closed with a small plastic cap and metal cover cap to keep the inside part of the catheter clean and protected (Caine S B, et al. “Effects of dopamine D-1 and D-2 antagonists on cocaine self-administration under different schedules of reinforcement in the rat” J Pharmacol Exp Ther. 270(1):209-18 (1994); Wee S, et al. “Effects of dose and session duration on cocaine self-administration in rats” J Pharmacol Exp Ther. 320(3):1134-43 (2007); Zorrilla E P, et al. “Extended access cocaine self-administration differentially activates dorsal raphe and amygdala corticotropin-releasing factor systems in rats” Addict Biol. 17(2):300-8 (2012); Valtcheva M V, et al. “Surgical extraction of human dorsal root ganglia from organ donors and preparation of primary sensory neuron cultures” Nat Protoc. 11:1877-1888 (2016)). All incisions were closed using veterinary tissue adhesive. After surgery, rats were given analgesic (Flunixin, 2.5 mg/kg s.c.).
Rats were allowed 5-7 days for recovery prior to self-administration.
The patency of catheters in the rats was tested using an ultra-short-acting barbiturate methohexital sodium (Brevital, Eli Lilly, Indianapolis, 1N, 10 mg/mL, 2 mg/rat) every 10-12 days during the study. Generally, a total loss of muscle tone within 3 s after a methohexital sodium injection indicates the patency of a catheter. Any animal that failed the test was excluded from the study.
During experimental sessions, each rat was placed in a standard operant chamber, which was placed in a light- and sound-attenuating cubicle (28×26×20 cm; Med Associates Inc., St. Albans, VT). The front door and the back wall of the chamber were made of transparent plastic, and the other walls were opaque metal. The chamber had two retractable response levers mounted on one side of the opaque walls. A stimulus light was mounted above each lever. A drug injection was delivered by a syringe pump (Razel Scientific Instruments, Georgia, VT) located on top of the cubicle. Experimental sessions were controlled and recorded by a PC computer with custom interface and software in the experimental room.
Experimental sessions were conducted once a day, 5-7 days a week during the dark (active) cycle. After being flushed with 0.9% saline, a rat's indwelling catheter was connected to a tube that exited the chamber through a metal spring and a swivel and was connected to a syringe pump. After the drug delivery system was connected to the rat, the chamber was closed, and the 2 hr session was started immediately. The start of a session was signaled by the presentation of two response levers into the chamber. […] During an injection, stimulus lights above both levers were illuminated and lasted throughout a time-out period (20 s) that followed each injection. Pressing the left lever was counted but had no other programmed consequences. […]

In series [7] the test system is P-gp (human MDR1, ABCB1). Kind of series: in vitro. As to conditions: dog, MDCK-MDR1.
The test system of series [8] is eIF4E phosphorylation in hDRGs. Kind of series: p-eIF4E immunofluorescence in cultured human dorsal root ganglion cells (hDRGs). As to conditions: OSM 10 and 50 ng/ml, 30 min. It is filed as cell-based. How it is done:
For all human DRG experiments, DRGs were recovered from organ donors at the Southwest Transplant Alliance under an IRB approved protocol at University of Texas at Dallas. DRGs were recovered within 3 hrs of cross clamp. DRGs were recovered and taken back to the University of Texas lab where they were cultured using the protocol described previously. Cultures were grown on glass coverslips for microscopy. Coverslips were coated with poly-D-lysine and laminin to improve neuronal adherence to the coverslips. Cultures of human DRG neurons were grown for 4-7 days prior to treatment with OSM. OSM treatment was done in culture media for a period of 30 min. Cells were stained with antibodies using the same protocol as described above for HEK293 cells. Imaging was done on an Olympus FV1200 microscope and image analysis was done with CellSens software. Statistical analysis was done with Graphpad Prism V8.
Human DRG recovery and other experimental protocols were the same as described herein.

T1 sequence (Q9BUB5 whole entry): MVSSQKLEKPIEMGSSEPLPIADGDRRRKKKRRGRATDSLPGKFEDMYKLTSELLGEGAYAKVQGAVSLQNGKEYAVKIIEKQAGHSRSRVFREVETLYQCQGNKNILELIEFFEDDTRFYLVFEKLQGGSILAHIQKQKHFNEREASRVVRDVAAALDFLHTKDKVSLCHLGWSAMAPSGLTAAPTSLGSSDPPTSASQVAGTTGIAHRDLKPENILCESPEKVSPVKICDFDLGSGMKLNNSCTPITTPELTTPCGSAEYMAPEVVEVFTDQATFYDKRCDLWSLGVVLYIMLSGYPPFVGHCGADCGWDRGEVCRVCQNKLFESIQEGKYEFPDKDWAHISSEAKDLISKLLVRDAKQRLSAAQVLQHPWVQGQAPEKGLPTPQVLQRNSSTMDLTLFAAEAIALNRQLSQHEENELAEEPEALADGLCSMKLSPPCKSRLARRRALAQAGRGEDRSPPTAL
T2 sequence (Q9HBH9 whole entry): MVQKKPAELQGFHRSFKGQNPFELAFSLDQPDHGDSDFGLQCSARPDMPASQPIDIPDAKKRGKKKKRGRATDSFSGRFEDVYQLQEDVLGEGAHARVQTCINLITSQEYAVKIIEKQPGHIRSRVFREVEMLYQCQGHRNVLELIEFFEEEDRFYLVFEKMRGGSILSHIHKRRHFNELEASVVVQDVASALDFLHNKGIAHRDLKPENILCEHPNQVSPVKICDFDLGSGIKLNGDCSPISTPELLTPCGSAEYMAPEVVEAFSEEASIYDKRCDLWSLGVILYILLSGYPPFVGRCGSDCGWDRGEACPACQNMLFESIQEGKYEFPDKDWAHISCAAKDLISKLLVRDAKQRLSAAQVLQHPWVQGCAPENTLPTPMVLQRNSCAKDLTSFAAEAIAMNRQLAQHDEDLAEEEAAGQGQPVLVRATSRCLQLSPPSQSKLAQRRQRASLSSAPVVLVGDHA

As to `Cc1cc(Nc2cc(N)ncn2)c(=O)n2c1C(=O)NC21CCCC2(CC2)CC1` (racemic) [rac-4ET-01-027, 6″-((6-Aminopyrimidin-4-yl)amino)-8″-methyl-2″H-dispiro[cyclopropane-1,1′-cycloheptane-4′,3″-imidazo[1,5-a]pyridine]-1″,5″-dione], the IC50 in series [1] amounted to 35.2 nM. The IC50 in series [2] turned out to be 1.6 nM. Also, in [3], the “efficacy in the IL-6 evoked grimace test” value was “efficacious”. In series [4], this molecule showed a half-life of 1.11 h. Also, the IC50 in series [5] was 12.6 nM. In the series with P-gp (human MDR1, ABCB1) [6], the Papp A→B at 5 uM was found to be 52.9 ×10⁻⁶ cm/s, the Papp B→A at 5 uM was 62.1 ×10⁻⁶ cm/s and the efflux ratio at 5 uM is 1.2.

For `Cc1cc(Nc2cc(N)ncn2)c(=O)n2c1C(=O)NC21C=CC2(CC2)CC1` (stereo not drawn) [4ET-01-051, 6″-((6-Aminopyrimidin-4-yl)amino)-8″-methyl-2″H-dispiro[cyclopropane-1,1′-cyclohexane-4′,3″-imidazo[1,5-a]pyridin]-2′-ene-1″,5″-dione], the IC50 in [1] amounted to 58.6 nM; in [2], 3.1 nM; in [5], 7.3 nM. Besides, the “efficacy in the IL-6 evoked grimace test” value in [3] is “efficacious”. The half-life in series [4] was 13.9 h. The Papp A→B at 5 uM with P-gp (human MDR1, ABCB1) [6] was 22.7 ×10⁻⁶ cm/s. For the same molecule, the Papp B→A at 5 uM with P-gp (human MDR1, ABCB1) [6] worked out at 52.4 ×10⁻⁶ cm/s. Moreover, the efflux ratio at 5 uM in the series on P-gp (human MDR1, ABCB1) [6] turned out to be 2.3.

Turning to `COc1ccc2c3c1O[C@H]1C(=O)CC[C@@]4(O)[C@@H](C2)N(C)CC[C@]314` [oxycodone, oxycondone, reference compound], in the series with Wistar rats (0.15 mg/kg oxycodone, both times this occurred), the “numbers of infusions, multiple comparisons test: oxycodone and subsequent saline” value was “significant differences”. The “Mean Difference, Šídák's multiple comparisons test” value in the series on Wistar rats (0.15 mg/kg oxycodone vs. saline (3rd comparison, first occurrence)) is 6.547; with Wistar rats (0.15 mg/kg oxycodone vs. saline (6th comparison, second occurrence)) it was 9.006.

Turning to `Cc1cc(Nc2cc(NC(=O)C3CC4(CNC4)C3)ncn2)c(=O)n2c1C(=O)NC21CCC2(CC2)CC1` [4ET-03-057, N-(6-((8″-methyl-1″,5″-dioxo-1″,5″-dihydro-2″H-dispiro[cyclopropane-1,1′-cyclohexane-4′,3″-imidazo[1,5-a]pyridin]-638-yl)amino)pyrimidin-4-yl)-2-azaspiro[3.3]heptane-6-carboxamide], the figures for the IC50 in series [1], in [2] and in [5] were 61.6 nM, 3.4 nM and 8.7 nM, respectively. The molecule further had a Papp A→B in the series with P-gp (human MDR1, ABCB1) [7] of 0.3 ×10⁻⁶ cm/s. This molecule had a Papp B→A in the series with P-gp (human MDR1, ABCB1) [7] of 1.1 ×10⁻⁶ cm/s. Besides, the half-life in [4] came out at 3.65 h.

With `Cc1cc(Nc2cc(N)ncn2)c(=O)n2c1C(=O)NC21CCC2(CCC2)CC1` [4ET-01-019, 6″-((6-aminopyrimidin-4-yl)amino)-8″-methyl-2″H-dispiro[cyclobutane-1,1′-cyclohexane-4′,3″-imidazo[1,5-a]pyridine]-1″,5″-dione], in [1], the IC50 stood at 43.9 nM. In series [2], the IC50 was 4.2 nM. Moreover, the half-life in series [4] amounted to 4.2 h. The IC50 in series [5] is 4.9 nM. Further, in the series with P-gp (human MDR1, ABCB1) [6], the Papp A→B at 5 uM turned out to be 43.9 ×10⁻⁶ cm/s, the apparent permeability from basolateral to apical (Papp B→A) at 5 uM is 71.9 ×10⁻⁶ cm/s and the efflux ratio at 5 uM turned out to be 1.6.

`Cc1cc(Nc2cc(N)ncn2)c(=O)n2c1C(=O)NC21CCC2(CCCC2)C1` (stereo not drawn) [4ET-01-016, 6″-((6-aminopyrimidin-4-yl)amino)-8″-methyl-2″H-dispiro[cyclopentane-1,1′-cyclopentane-3′,3″-imidazo[1,5-a]pyridine]-1″,5″-dione]: in series [1], the IC50 was 33 nM. In addition, in series [2], the IC50 amounted to 3.5 nM. The half-life in series [4] was determined as 11.3 h. Moreover, in series [5], the IC50 was 8.9 nM. Further, in the series with P-gp (human MDR1, ABCB1) [6], the Papp A→B at 5 uM turned out to be 48.6 ×10⁻⁶ cm/s, the Papp B→A at 5 uM was determined as 46.5 ×10⁻⁶ cm/s and the efflux ratio at 5 uM stood at 1.

For the molecule `Cc1cc(Nc2cc(N)ncn2)c(=O)n2c1C(=O)NC21CCC2(CC1)CC2(F)F` (stereo not drawn) [4ET-03-068, 6″-((6-aminopyrimidin-4-yl)amino)-2,2-difluoro-8″-methyl-2″H-dispiro[cyclopropane-1,1′-cyclohexane-4′,3″-imidazo[1,5-a]pyridine]-1″,5″-dione], the IC50 in [1] came to 25.3 nM. The IC50 in series [2] was 1.5 nM. Besides, the half-life in series [4] came out at 4.93 h. The IC50 in series [5] amounted to 3.4 nM. For the same molecule, in the series on P-gp (human MDR1, ABCB1) [6], the Papp A→B at 5 uM was determined as 18.7 ×10⁻⁶ cm/s, the Papp B→A at 5 uM amounted to 71 ×10⁻⁶ cm/s and the efflux ratio at 5 uM came to 3.8.

With `Cc1cc(Nc2cc(NCCO)ncn2)c(=O)n2c1C(=O)NC21CCC2(CC2)CC1` [4ET-03-074, 6″-((6-((2-hydroxyethyl)amino)pyrimidin-4-yl)amino)-8″-methyl-2″H-dispiro[cyclopropane-1,1′-cyclohexane-4′,3″-imidazo[1,5-a]pyridine]-1″,5″-dione], the IC50 in series [1] worked out at 45.9 nM. In series [2], the IC50 turned out to be 3.1 nM. Besides, the half-life in series [4] turned out to be 1.87 h. Moreover, in series [5], the IC50 was determined as 11.3 nM. In addition, in the series with P-gp (human MDR1, ABCB1) [6], the Papp A→B at 5 uM turned out to be 7.6 ×10⁻⁶ cm/s, the Papp B→A at 5 uM was 58.1 ×10⁻⁶ cm/s and the efflux ratio at 5 uM is 7.6.

B1: oncostatin M (protein, UniProt P13725 26-221, looked up)
Oncostatin-M: AAIGSCSKEYRVLLGQLQKQTDLMQDTSRLLDPYIRIQGLDVPKLREHCRERPGAFPSEETLRGLGRRGFLQTLNATLGCVLHRLADLEQRLPKAQDLERSGLNIEDLEKLQMARPNILGLRNNIYCMAQLLDNSDTAEPTKAGRGASQPPTPTPASDAFQRKLEGCRFLHGYHRFMHSVGRVFSKWGESPNRSRR
For the molecule B1, in [8], the “phosphorylation of eIF4E in hDRGs (stimulus)” value is given as “increased phosphorylation of eIF4E”.
